Eleven compounds from ChEMBL document CHEMBL4602621, “Optimization of cyclic sulfamide derivatives as 11β-hydroxysteroid dehydrogenase 1 inhibitors for the potential treatment of ischemic brain injury” (Bioorg Med Chem Lett, 2020) can be followed below.

Active and inactive are the calls of the source. The calls are words filed in the database; no cut-off is given here.

Series [1] deals with 11-beta-hydroxysteroid dehydrogenase 1 (Mus musculus) (UniProt P50172). Kind of series: In vivo inhibition of 11 beta-HSD1 in brain of mouse at 20 mg/kg, po relative to control. It is filed as functional, organism-based.
Series [2] has as its target 11-beta-hydroxysteroid dehydrogenase 1 (Mus musculus, UniProt P50172). As to the kind of experiment: Inhibition of mouse 11beta-HSD1 expressed in CHOK1 cells using XL665-labeled cortisol as substrate measured after 24 hrs by HTRF assay. It is filed as cell-based, CHO-K1. A general note: Time-resolved FRET reads energy transfer from a long-lived donor to a nearby acceptor.

In series [3] the target is 11-beta-hydroxysteroid dehydrogenase 1 (Mus musculus) (UniProt P50172). As to the kind of experiment: In vivo inhibition of 11 beta-HSD1 in brain of mouse at 30 mg/kg, po relative to control. In kind it is functional, organism-based.
Series [4] in a line: Drug level in plasma of mouse at 10 mg/kg, ip administered as single dose measured at 0.5 hrs. It is filed as ADME, organism-based.
A short description of series [5]: Drug level in brain of mouse at 10 mg/kg, ip administered as single dose measured at 3 hrs. In kind it is ADME, organism-based. The following applies: read-out: Drug uptake.
Series [6] in a line: Drug level in plasma of mouse at 10 mg/kg, ip administered as single dose measured at 3 hrs. In kind it is ADME, organism-based.
Series [7] deals with 11-beta-hydroxysteroid dehydrogenase 1 (Mus musculus) (UniProt P50172). As to the kind of experiment: Ex vivo inhibition of 11 beta-HSD1 in brain of iv dosed mouse by measuring cortisol amount after 1 hr by ELISA. It is filed as functional, organism-based. (In general: ELISA stands for enzyme-linked immunosorbent assay.)
The nature of series [8]: Ratio of drug concentration in brain to plasma of mouse at 10 mg/kg, ip administered as single dose measured at 0.5 hrs. The following applies: read-out: BPR. It is filed as ADME, organism-based.
Series [9] relates to Mus musculus. Kind of series: Neuroprotective activity in mouse model of middle cerebral artery occlusion-induced ischemia-reperfusion injury assessed as cerebral infarct volume at 30 mg/kg, ip administered twice at 1 to 5 hrs post induction of ischemia followed by 24 hrs of reperfusion by TTC staining based assay (reference value: 90.3 +/- 6 mm3). In kind it is functional.

The target of series [10] is 11-beta-hydroxysteroid dehydrogenase 1 (Homo sapiens, UniProt P28845). As to the kind of experiment: Inhibition of human 11beta-HSD1 expressed in CHOK1 cells using XL665-labeled cortisol as substrate measured after 24 hrs by HTRF assay. In kind it is cell-based, CHO-K1.
Series [11] is described as follows: Ratio of drug concentration in brain to plasma of mouse at 10 mg/kg, ip administered as single dose measured at 3 hrs. The following applies: read-out: BPR. In kind it is ADME, organism-based.
Series [12] relates to Mus musculus. As to the kind of experiment: Neuroprotective activity in mouse model of middle cerebral artery occlusion-induced ischemia-reperfusion injury assessed as cerebral infarct volume at 10 mg/kg, ip administered twice at 1 to 5 hrs post induction of ischemia followed by 24 hrs of reperfusion by TTC staining based assay (reference value: 90.3 +/- 6 mm3). In kind it is functional.

Series [13] deals with Mus musculus. As to the kind of experiment: Neuroprotective activity in mouse model of middle cerebral artery occlusion-induced ischemia-reperfusion injury assessed as reduction in cerebral infarct area at 10 to 30 mg/kg, ip administered twice at 1 to 5 hrs post induction of ischemia followed by 24 hrs of reperfusion by TTC staining based assay. It is filed as functional, organism-based.

Series [14] is described as follows: Drug level in brain of mouse at 10 mg/kg, ip administered as single dose measured at 0.5 hrs. It is filed as ADME, organism-based. The following applies: read-out: Drug uptake.

Sequence of 11-beta-hydroxysteroid dehydrogenase 1 (Mus musculus) (P50172 whole entry, looked up): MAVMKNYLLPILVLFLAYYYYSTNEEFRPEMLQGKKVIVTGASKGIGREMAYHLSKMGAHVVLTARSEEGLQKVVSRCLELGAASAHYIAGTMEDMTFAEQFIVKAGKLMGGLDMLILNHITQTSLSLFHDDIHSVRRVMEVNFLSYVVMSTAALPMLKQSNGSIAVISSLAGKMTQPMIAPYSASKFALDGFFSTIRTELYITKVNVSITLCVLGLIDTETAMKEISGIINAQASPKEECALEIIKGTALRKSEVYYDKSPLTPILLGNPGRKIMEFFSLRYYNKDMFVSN
Sequence of 11-beta-hydroxysteroid dehydrogenase 1 (Mus musculus, UniProt P50172) (P50172 whole entry): as the sequence (P50172 whole entry, looked up) above
Sequence of 11-beta-hydroxysteroid dehydrogenase 1 (Homo sapiens, UniProt P28845) (P28845 whole entry): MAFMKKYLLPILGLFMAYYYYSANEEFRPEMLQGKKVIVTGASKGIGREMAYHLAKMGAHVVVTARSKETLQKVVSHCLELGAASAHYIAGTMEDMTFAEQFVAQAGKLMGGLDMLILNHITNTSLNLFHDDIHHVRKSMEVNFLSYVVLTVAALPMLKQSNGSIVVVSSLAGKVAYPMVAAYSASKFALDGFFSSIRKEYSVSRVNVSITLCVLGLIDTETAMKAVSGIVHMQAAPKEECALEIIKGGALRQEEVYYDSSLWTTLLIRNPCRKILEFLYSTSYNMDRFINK

For orientation: inhibition means how much of the control response was suppressed. The term IC50 denotes the concentration at which inhibition is half-maximal. A low value points to greater potency. In series [1], `Cc1cc(Cl)c(N2CC(C)CN(CC(=O)NC3C4CC5CC3CC(C(N)=O)(C5)C4)S2(=O)=O)c(Cl)c1` (stereo not given) came in with an inhibition of 69%. In addition, the IC50 in [2] amounted to 3.7 nM.

Compound `CC1CN(CC(=O)NC2C3CC4CC2CC(C(N)=O)(C4)C3)S(=O)(=O)N(c2ccc(C(F)(F)F)cn2)C1` (stereo not given) came in with an IC50 in series [2] of 940 nM.

As for `CC1CN(CC(=O)NC2C3CC4CC2CC(C(N)=O)(C4)C3)S(=O)(=O)N(c2ccccn2)C1` (stereo not given), the IC50 in [2] was 1210 nM.

`CC1CN(CC(=O)NC2C3CC4CC2CC(C(N)=O)(C4)C3)S(=O)(=O)N(c2c(Cl)cc(Cl)cc2Cl)C1` (stereo not given) had an IC50 in series [2] of 2 nM. The compound further registered an inhibition in series [3] of 66%.

As to `CC(C)C1CN(CC(=O)NC2C3CC4CC2CC(C(N)=O)(C4)C3)S(=O)(=O)N(c2c(Cl)cc(C(F)(F)F)cc2Cl)C1` (stereo not given), it took 2800 nM to reach half-maximal inhibition in [2] (IC50).

With `CC1CN(CC(=O)NC2C3CC4CC2CC(C(N)=O)(C4)C3)S(=O)(=O)N(c2c(Cl)cc(-c3ccccc3)cc2Cl)C1` (stereo not given), in series [2], it took 174 nM to reach half-maximal inhibition (IC50).

Turning to `CCC1CN(CC(=O)NC2C3CC4CC2CC(C(N)=O)(C4)C3)S(=O)(=O)N(c2c(Cl)cc(C(F)(F)F)cc2Cl)C1` (stereo not given), the IC50 in series [2] turned out to be 695 nM.

`NC(=O)C12CC3CC(C1)C(NC(=O)CN1CCCN(c4c(Cl)cc(C(F)(F)F)cc4Cl)S1(=O)=O)C(C3)C2` (stereo not given) had an inhibition in series [1] of 45.8%.

On to `CC1CN(CC(=O)NC2C3CC4CC2CC(C(N)=O)(C4)C3)S(=O)(=O)N(c2c(Cl)cc(Br)cc2Cl)C1` (stereo not given), for which, in [1], the inhibition was 41.1%.

As to `CC1CN(CC(=O)NC2C3CC4CC2CC(C(N)=O)(C4)C3)S(=O)(=O)N(c2c(Cl)cc(C(F)(F)F)cc2Cl)C1` (stereo not given), the concentration at 0.5 h in [4] was determined as 4770 ng/mL; in series [14], 1780 ng/mL. For the same compound, the results for the concentration at 3 h in series [5] and in series [6] were 670 ng/mL and 1310 ng/mL, respectively. Further, the inhibition in [1] is 82%; in series [7], “Dose-dependent effect”. Also, the IC50 in series [2] and in [10] was 1 nM throughout. Further, the Kp at 0.5 h in series [8] came out at 0.38. Further, the values for the Activity with Mus musculus [9] and in the series on Mus musculus [12] were 59 mm3 and 66.2 mm3, respectively. The Kp at 3 h in [11] is 0.53. Moreover, the result in the series on Mus musculus [13] was Active.

In series [2], `CC1CN(CC(=O)NC2C3CC4CC2CC(C(N)=O)(C4)C3)S(=O)(=O)N(c2c(Cl)cc(-c3ccco3)cc2Cl)C1` (stereo not given) gave an IC50 of 68 nM.
